Results as given in patent US6849716B1, “Methods for designing inhibitors of serine/threonine kinases and tyrosine kinases” (Vertex Pharmaceuticals Incorporated, priority 1998, dated 2005).

Legend:
JNK3 (M146A/D150G) = JNK3 (M146A/D150G) (Homo sapiens, UniProt P53779, D150G/M146A); test: Coupled spectrophotometric kinase assay, JNK3 (M146A/D150G)
ERK2 (Q105A) = ERK2 (Q105A) (Homo sapiens, UniProt P28482, Q105A); test: Coupled spectrophotometric kinase assay, ERK2 (Q105A); type: biochemical
ERK2 (Q105T) = ERK2 (Q105T) (Homo sapiens, UniProt P28482, Q105T); test: Coupled spectrophotometric kinase assay, ERK2 (Q105T); type: biochemical
ERK2 (wild-type) = ERK2 (wild-type) (Homo sapiens, UniProt P28482); test: Coupled spectrophotometric kinase assay, ERK2 (wild-type); type: biochemical
p38 = p38 (Homo sapiens, UniProt Q16539); test: Coupled spectrophotometric kinase assay, p38; type: biochemical; details: read-out: KM for ATP
p38, sequence (Q16539 whole entry): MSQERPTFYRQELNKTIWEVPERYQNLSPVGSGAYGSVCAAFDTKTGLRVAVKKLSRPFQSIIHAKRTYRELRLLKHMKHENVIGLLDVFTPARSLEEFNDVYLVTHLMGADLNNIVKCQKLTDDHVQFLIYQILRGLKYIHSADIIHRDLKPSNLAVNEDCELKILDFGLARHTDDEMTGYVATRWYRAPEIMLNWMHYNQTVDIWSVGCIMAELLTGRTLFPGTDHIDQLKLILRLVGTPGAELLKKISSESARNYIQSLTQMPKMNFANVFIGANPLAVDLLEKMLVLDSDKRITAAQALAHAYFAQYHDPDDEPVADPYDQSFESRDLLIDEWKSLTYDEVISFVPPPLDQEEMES

JNK3 (M146A) = JNK3 (M146A) (Homo sapiens, UniProt P53779, M146A); test: Coupled spectrophotometric kinase assay, JNK3 (M146A)
JNK3 (M146A), sequence (P53779 40-402 M146A): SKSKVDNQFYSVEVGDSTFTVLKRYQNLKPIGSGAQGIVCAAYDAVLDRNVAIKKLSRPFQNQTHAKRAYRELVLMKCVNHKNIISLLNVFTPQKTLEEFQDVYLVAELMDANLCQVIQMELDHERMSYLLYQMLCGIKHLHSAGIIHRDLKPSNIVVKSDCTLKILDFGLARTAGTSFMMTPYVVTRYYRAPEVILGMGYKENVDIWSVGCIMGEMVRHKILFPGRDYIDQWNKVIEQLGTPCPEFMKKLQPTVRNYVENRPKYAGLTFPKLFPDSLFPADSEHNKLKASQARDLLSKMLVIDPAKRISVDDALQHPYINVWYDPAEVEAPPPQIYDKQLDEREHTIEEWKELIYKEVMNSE

JNK3 (wild-type) = JNK3 (wild-type) (Homo sapiens, UniProt P53779); test: Coupled spectrophotometric kinase assay, JNK3 (wild-type)
JNK3 (wild-type), sequence (P53779 40-402): as the sequence (P53779 40-402 M146A) above, with A107M counted along it

[1] = 100 μM ATP, 200 μM EGF receptor peptide, read-out: Inhibition constants, Ki

JNK3 (M146A/D150G), sequence (P53779 40-402 M146A/D150G): as the sequence (P53779 40-402 M146A) above, with D111G counted along it

Row | Km (JNK3 (M146A/D150G); read-out: KM for ATP, JNK3 (M146A/D150G)) [µM] | Km (ERK2 (Q105A); read-out: KM for ATP) [µM] | Km (ERK2 (Q105T); read-out: KM for ATP) [µM] | Km (ERK2 (wild-type); read-out: KM for ATP) [µM] | Km (p38) [µM] | Km (JNK3 (M146A); read-out: KM for ATP, JNK3 (M146A)) [µM] | Km (JNK3 (wild-type); read-out: KM for ATP, JNK3 (wild-type)) [µM] | SMILES | sensitivity of the JNK3 double mutant (in words) (JNK3 (M146A/D150G); JNK3 (M146A/D150G) compared with wild-type and single mutant) | Ki (ERK2 (Q105A); [1]) [nM] | Ki (ERK2 (Q105T); [1]) [nM] | Ki (ERK2 (wild-type); [1]) [nM] | increase in sensitivity versus wild-type JNK3 (JNK3 (M146A); JNK3 M146A mutant) | sensitivity of wild-type JNK3 (in words) (JNK3 (wild-type); wild-type JNK3)
1 | 311 | 51 ± 6 | 33 ± 4 | 76 ± 14 | 260 ± 30 | 75 | 15 | Nc1ncnc2c1ncn2[C@@H]1O[C@H](COP(=O)(O)OP(=O)(O)OP(=O)(O)O)[C@@H](O)[C@H]1O [ATP] |  |  |  |  |  | 
2 |  |  |  |  |  |  |  | Oc1ccc(-c2nc(-c3ccc(F)cc3)c(-c3ccncc3)[nH]2)cc1 [SB202190, reference compound] | considerably more sensitive than wild-type, but significantly less than observed for the single mutant | 0.81 ± 0.19 | 6.8 ± 0.6 | > 20000 | ~4,000 fold | moderately sensitive
